For one series, the target named is T1, human OCT2 (Homo sapiens, UniProt O15244).
T1 construct: expressed in transfected cells; host or cells: HEK293
T1 sequence (O15244 1-555): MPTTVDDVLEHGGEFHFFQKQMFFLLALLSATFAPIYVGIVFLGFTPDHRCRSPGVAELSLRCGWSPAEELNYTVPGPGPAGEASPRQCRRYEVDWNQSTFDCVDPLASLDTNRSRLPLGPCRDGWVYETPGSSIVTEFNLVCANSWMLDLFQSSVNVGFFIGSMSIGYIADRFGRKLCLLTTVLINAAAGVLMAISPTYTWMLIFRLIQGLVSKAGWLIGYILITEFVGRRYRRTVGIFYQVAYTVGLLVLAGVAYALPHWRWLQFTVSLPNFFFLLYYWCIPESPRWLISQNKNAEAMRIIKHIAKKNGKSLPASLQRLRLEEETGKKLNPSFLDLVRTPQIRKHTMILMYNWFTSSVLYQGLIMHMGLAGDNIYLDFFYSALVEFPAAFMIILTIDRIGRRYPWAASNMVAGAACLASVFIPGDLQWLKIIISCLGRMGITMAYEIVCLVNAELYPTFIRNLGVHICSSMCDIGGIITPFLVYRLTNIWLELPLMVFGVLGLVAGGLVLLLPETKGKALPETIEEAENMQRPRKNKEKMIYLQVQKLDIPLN
In words: SLC transporter inhibition in HEK293 cells. The series is classed as in vitro ADME.

For a further series, the target named is MATE2-K (Homo sapiens, UniProt Q86VL8). In words: SLC transporter inhibition in HEK293 cells.

Read-outs that look alike come from different tables or passages of the source.

MATE2-K, sequence (Q86VL8 1-566 isoform Q86VL8-3): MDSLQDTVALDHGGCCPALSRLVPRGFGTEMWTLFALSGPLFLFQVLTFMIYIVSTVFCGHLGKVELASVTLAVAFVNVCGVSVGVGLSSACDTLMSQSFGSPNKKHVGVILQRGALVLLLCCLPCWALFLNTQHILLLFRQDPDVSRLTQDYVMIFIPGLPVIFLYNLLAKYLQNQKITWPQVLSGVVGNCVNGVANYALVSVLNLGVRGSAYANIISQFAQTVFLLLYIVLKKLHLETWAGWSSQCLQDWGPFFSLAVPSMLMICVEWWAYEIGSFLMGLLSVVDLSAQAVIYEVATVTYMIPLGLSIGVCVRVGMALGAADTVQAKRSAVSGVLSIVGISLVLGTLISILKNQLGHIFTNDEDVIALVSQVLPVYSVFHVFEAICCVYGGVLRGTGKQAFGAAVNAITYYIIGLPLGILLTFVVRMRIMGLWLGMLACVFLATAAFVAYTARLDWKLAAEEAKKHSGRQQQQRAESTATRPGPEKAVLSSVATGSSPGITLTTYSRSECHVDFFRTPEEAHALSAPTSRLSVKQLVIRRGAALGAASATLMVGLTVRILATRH

One may read the IC50 as the concentration at which inhibition is half-maximal. `NS(=O)(=O)c1ccc(Nc2ncc3cc4n(c3n2)C2(CCCCC2)C(=O)NN4)cc1` [Compound I]: the “Maximum Percent inhibition” value is 49% on human OCT2 (OCT2, HEK293 cells) and 69% on MATE2-K (MATE2-K, HEK293 cells). Moreover, the IC50 at human OCT2 (OCT2, HEK293 cells, estimated, read-out: IC50) is 17.1 µM; on human OCT2 (read-out: OCT2 IC50), 17.1 µM; at MATE2-K it was 740 nM; on MATE2-K (human), 740 nM.

These data come from patent US20250199015A1, “CYCLIN-DEPENDENT KINASE 2 INHIBITORS FOR MEDICAL TREATMENT” (INCYCLIX BIO, LLC, priority 2022, published 2025).
